Marks after values point to notes of the source that are not given here. Starred links: 1 amine or outer side, 2 acyl side, 3 side chain; linkers in the order of their positions; H or OH if unused. Non-standard residues stand in square brackets, D forms with d. Residues, ends and D or L forms follow the SMILES beside them. Groups on a side chain read outwards from the residue. *: point of attachment. C18 diacid = O=C(O)CCCCCCCCCCCCCCCCC(=O)*; γGlu = O=C(O)[C@H](CCC(=O)[*:2])N[*:1]; εLys = N[C@@H](CCCCN[*:1])C(=O)[*:2]; Aib = CC(C)(N)C(=O)O
Assay: Pharmacokinetic study in dogs after oral dosing of tablets with SNAC
Type: in vivo, Beagle dogs
Procedure: The purpose of this example is to determine the half-life and plasma exposure in vivo of the compounds of the present invention after p.o. administration to beagle dogs, i.e. the terminal half-life and concentration of test substance that reaches circulation with time. This is done in a pharmacokinetic (PK) study, where these parameters of the compound in question are determined. By terminal half-life is generally meant the period of time it takes to halve a certain plasma concentration, measured after the initial distribution phase.
The amount of SNAC in the tablet composition was 100-300 mg, the amount of magnesium stearate in the tablet composition was 7.7 mg, and the target amount of each test substance in the tablet composition was 3-4 mg.
Male beagle dogs, 1-7 years of age and weighing 9-17 kg during the study period, were included in the study. The dogs were dosed in a fasting state. The dogs were group housed in pens (12 hours light: 12 hours dark), and fed individually and restrictedly once daily with Royal Canin Medium Adult dog food (Royal Canin Products, China Branch, or Brogaarden A/S, Denmark). The dogs were used for repeated PK studies with a suitable wash-out period between successive dosing. An appropriate acclimatization period was given prior to initiation of the first PK study. All handling, dosing, and blood sampling of the animals were performed by trained and skilled staff. Before the studies, the dogs were fasted overnight and from 0 to 4 hours after dosing. The dogs were restricted to water 1 hour before dosing until 4 hours after dosing, but otherwise had ad libitum access to water during the whole period.
The compositions were administered by a single oral dosing to the dogs in groups of 6-8 dogs. […] The mouth was then closed, and 10 mL of tap water was given by syringe or gavage to facilitate swallowing of the tablet.
For each blood sample time point, approximately 0.8 mL of whole blood was collected in a 1.5 mL EDTA-coated tube, which was gently turned to mix the sample with EDTA. Blood samples were collected in EDTA buffer (8 mM) and then centrifuged at 4° C. and 2000g for 10 minutes. Plasma was pipetted into Micronic tubes on dry ice, and kept at −20° C. or lower until analysis. Blood samples were taken as appropriate, for example from a venflon in the cephalic vein in the front leg for the first 2 hours and then with syringe from the jugular vein for the rest of the time points. The first few drops were allowed to drain from the venflon to avoid heparin saline from the venflon in the sample.
All blood samples were collected into test tubes containing EDTA for stabilisation and kept on ice until centrifugation. Plasma was separated from whole blood by centrifugation and the plasma was stored at −20° C. or lower until analysis.
The plasma was analysed for test substance using LC-MS (Liquid Chromatography-Mass Spectrometry) as known to the person skilled in the art. […] RP-HPLC separation was achieved using a linear gradient of 1:1 acetonitrile/methanol in 1% aqueous formic acid using either: a Phenomenex Onyx Monolithic C18 column (50×2.0 mm) and a flow rate of 0.8 mL/min at 30° C.; or an Agilent Poroshell 120 SB-C18 column (50×2.1 mm, 2.7 μm) at a flow rate of 0.4 mL/min at 60° C. The mass spectrometer was operated in either positive ionization SIM mode or positive ionization PRM mode.
For each individual animal, a plasma concentration-time profile was analysed by a non-compartmental model in Pharsight Phoenix WinNonLin ver. 6.4 software or other relevant software for PK analysis, and the resulting terminal half-life (t1/2), maximum plasma concentration per dose (Cmax/D), time for maximum plasma concentration (tmax), and area under the curve to infinity per dose (AUC/D) were determined. Summary statistics of pharmacokinetic results were presented as median (for tmax), harmonic mean ([…]), or arithmetic mean (Cmax, AUC).

SMILES	Cmax/Dose (dog, in vivo, po)	Cmax/Dose (oral tablet, 100 mg SNAC, 3 mg test substance, Beagle dogs, arithmetic mean)
CC[C@H](C)[C@H](NC(=O)[C@H](Cc1ccccc1)NC(=O)[C@H](CCC(=O)O)NC(=O)[C@H](CCC(N)=O)NC(=O)[C@H](C)NC(=O)[C@H](C)NC(=O)[C@H](CCC(N)=O)NC(=O)[C@H](CCCCNC(=O)[C@@H](N)CCCCNC(=O)[C@@H](N)CCCCNC(=O)CC[C@H](NC(=O)CCCCCCCCCCCCCCCCC(=O)O)C(=O)O)NC(=O)[C@H](CCC(=O)O)NC(=O)[C@H](CC(C)C)NC(=O)[C@H](CC(C)C)NC(=O)[C@@H](NC(=O)[C@H](CO)NC(=O)[C@H](Cc1ccc(O)cc1)NC(=O)[C@H](CC(=O)O)NC(=O)[C@H](CO)NC(=O)[C@@H](NC(=O)[C@H](Cc1ccccc1)NC(=O)[C@@H](NC(=O)CNC(=O)[C@H](CCC(=O)O)NC(=O)C(C)(C)NC(=O)[C@@H](N)Cc1ccc(O)cc1)[C@@H](C)O)[C@@H](C)O)[C@@H](C)CC)C(=O)N[C@@H](CCC(=O)O)C(=O)N[C@@H](Cc1c[nH]c2ccccc12)C(=O)N[C@@H](CC(C)C)C(=O)N[C@@H](CC(C)C)C(=O)N[C@@H](C)C(=O)NCC(=O)NCC(=O)N1CCC[C@H]1C(=O)N[C@@H](CO)C(=O)N[C@@H](CO)C(=O)NCC(=O)N[C@@H](C)C(=O)N1CCC[C@H]1C(=O)N1CCC[C@H]1C(=O)N1CCC[C@H]1C(=O)N[C@@H](CO)C(=O)O [Compound No. 29] (H-Y[Aib]EGTFTSDYSILLEK([εLys-εLys-γGlu-C18 diacid])QAAQEFIEWLLAGGPSSGAPPPS-OH)	0.26** kg/L	–
CC[C@H](C)[C@H](NC(=O)[C@H](Cc1ccccc1)NC(=O)[C@H](CCC(=O)O)NC(=O)[C@H](CCCNC(=N)N)NC(=O)[C@H](C)NC(=O)[C@H](C)NC(=O)[C@H](CCC(N)=O)NC(=O)[C@H](CCCCNC(=O)[C@@H](N)CCCCNC(=O)[C@@H](N)CCCCNC(=O)CC[C@H](NC(=O)CCCCCCCCCCCCCCCCC(=O)O)C(=O)O)NC(=O)[C@H](CCC(=O)O)NC(=O)[C@H](CC(C)C)NC(=O)[C@H](Cc1ccc(O)cc1)NC(=O)[C@@H](NC(=O)[C@H](CO)NC(=O)[C@H](Cc1ccc(O)cc1)NC(=O)[C@H](CC(=O)O)NC(=O)[C@H](CO)NC(=O)[C@@H](NC(=O)[C@H](Cc1ccccc1)NC(=O)[C@@H](NC(=O)CNC(=O)[C@H](CCC(=O)O)NC(=O)C(C)(C)NC(=O)[C@@H](N)Cc1ccc(O)cc1)[C@@H](C)O)[C@@H](C)O)[C@@H](C)CC)C(=O)N[C@@H](CCC(=O)O)C(=O)N[C@@H](Cc1c[nH]c2ccccc12)C(=O)N[C@@H](CC(C)C)C(=O)N[C@@H](CC(C)C)C(=O)N[C@@H](CCCNC(=N)N)C(=O)NCC(=O)NCC(=O)N1CCC[C@H]1C(=O)N[C@@H](CCC(=O)O)C(=O)N[C@@H](CO)C(=O)NCC(=O)N[C@@H](C)C(=O)N1CCC[C@H]1C(=O)N1CCC[C@H]1C(=O)N1CCC[C@H]1C(=O)N[C@@H](CO)C(=O)O [Compound No. 13] (H-Y[Aib]EGTFTSDYSIYLEK([εLys-εLys-γGlu-C18 diacid])QAAREFIEWLLRGGPESGAPPPS-OH)	–	0.29 kg/L
CC[C@H](C)[C@H](NC(=O)[C@H](Cc1ccccc1)NC(=O)[C@H](CCC(=O)O)NC(=O)[C@H](CCC(=O)O)NC(=O)[C@H](C)NC(=O)[C@H](C)NC(=O)[C@H](CCC(N)=O)NC(=O)[C@H](CCCCNC(=O)[C@@H](N)CCCCNC(=O)[C@@H](N)CCCCNC(=O)CC[C@H](NC(=O)CCCCCCCCCCCCCCCCC(=O)O)C(=O)O)NC(=O)[C@H](CCC(=O)O)NC(=O)[C@H](CC(C)C)NC(=O)[C@H](CC(C)C)NC(=O)[C@@H](NC(=O)[C@H](CO)NC(=O)[C@H](Cc1ccc(O)cc1)NC(=O)[C@H](CC(=O)O)NC(=O)[C@H](CO)NC(=O)[C@@H](NC(=O)[C@H](Cc1ccccc1)NC(=O)[C@@H](NC(=O)CNC(=O)[C@H](CCC(=O)O)NC(=O)C(C)(C)NC(=O)[C@@H](N)Cc1ccc(O)cc1)[C@@H](C)O)[C@@H](C)O)[C@@H](C)CC)C(=O)N[C@@H](CC(N)=O)C(=O)N[C@@H](Cc1c[nH]c2ccccc12)C(=O)N[C@@H](CC(C)C)C(=O)N[C@@H](CC(C)C)C(=O)N[C@@H](C)C(=O)NCC(=O)NCC(=O)N1CCC[C@H]1C(=O)N[C@@H](CO)C(=O)N[C@@H](CO)C(=O)NCC(=O)N[C@@H](C)C(=O)N1CCC[C@H]1C(=O)N1CCC[C@H]1C(=O)N1CCC[C@H]1C(=O)N[C@@H](CO)C(=O)O [Compound No. 25] (H-Y[Aib]EGTFTSDYSILLEK([εLys-εLys-γGlu-C18 diacid])QAAEEFINWLLAGGPSSGAPPPS-OH)	0.30 kg/L	–
CC[C@H](C)[C@H](NC(=O)[C@H](Cc1ccccc1)NC(=O)[C@H](CCC(=O)O)NC(=O)[C@H](CCCNC(=N)N)NC(=O)[C@H](C)NC(=O)[C@H](C)NC(=O)[C@H](CCC(N)=O)NC(=O)[C@H](CCC(=O)O)NC(=O)[C@H](CCC(=O)O)NC(=O)[C@H](CC(C)C)NC(=O)[C@H](CC(C)C)NC(=O)[C@@H](NC(=O)[C@H](CO)NC(=O)[C@H](Cc1ccc(O)cc1)NC(=O)[C@H](CC(=O)O)NC(=O)[C@H](CO)NC(=O)[C@@H](NC(=O)[C@H](Cc1ccccc1)NC(=O)[C@@H](NC(=O)CNC(=O)[C@H](CCC(=O)O)NC(=O)C(C)(C)NC(=O)[C@@H](N)Cc1ccc(O)cc1)[C@@H](C)O)[C@@H](C)O)[C@@H](C)CC)C(=O)N[C@@H](CCC(=O)O)C(=O)N[C@@H](Cc1c[nH]c2ccccc12)C(=O)N[C@@H](CC(C)C)C(=O)N[C@@H](CC(C)C)C(=O)N[C@@H](C)C(=O)NCC(=O)NCC(=O)N1CCC[C@H]1C(=O)N[C@@H](CO)C(=O)N[C@@H](CCCCNC(=O)[C@@H](N)CCCCNC(=O)[C@@H](N)CCCCNC(=O)CC[C@H](NC(=O)CCCCCCCCCCCCCCCCC(=O)O)C(=O)O)C(=O)NCC(=O)N[C@@H](C)C(=O)N1CCC[C@H]1C(=O)N1CCC[C@H]1C(=O)N1CCC[C@H]1C(=O)N[C@@H](CO)C(=O)O [Compound No. 43] (H-Y[Aib]EGTFTSDYSILLEEQAAREFIEWLLAGGPSK([εLys-εLys-γGlu-C18 diacid])GAPPPS-OH)	0.22 kg/L	–
CC[C@H](C)[C@H](NC(=O)[C@H](Cc1ccccc1)NC(=O)[C@H](CCC(=O)O)NC(=O)[C@H](Cc1c[nH]cn1)NC(=O)[C@H](C)NC(=O)[C@H](C)NC(=O)[C@H](CCC(N)=O)NC(=O)[C@H](CCCCNC(=O)[C@@H](N)CCCCNC(=O)[C@@H](N)CCCCNC(=O)CC[C@H](NC(=O)CCCCCCCCCCCCCCCCC(=O)O)C(=O)O)NC(=O)[C@H](CCC(=O)O)NC(=O)[C@H](CC(C)C)NC(=O)[C@H](CC(C)C)NC(=O)[C@@H](NC(=O)[C@H](CO)NC(=O)[C@H](Cc1ccc(O)cc1)NC(=O)[C@H](CC(=O)O)NC(=O)[C@H](CO)NC(=O)[C@@H](NC(=O)[C@H](Cc1ccccc1)NC(=O)[C@@H](NC(=O)CNC(=O)[C@H](CCC(=O)O)NC(=O)C(C)(C)NC(=O)[C@@H](N)Cc1ccc(O)cc1)[C@@H](C)O)[C@@H](C)O)[C@@H](C)CC)C(=O)N[C@@H](CC(N)=O)C(=O)N[C@@H](Cc1c[nH]c2ccccc12)C(=O)N[C@@H](CC(C)C)C(=O)N[C@@H](CC(C)C)C(=O)N[C@@H](C)C(=O)NCC(=O)NCC(=O)N1CCC[C@H]1C(=O)N[C@@H](CO)C(=O)N[C@@H](CO)C(=O)NCC(=O)N[C@@H](C)C(=O)N1CCC[C@H]1C(=O)N1CCC[C@H]1C(=O)N1CCC[C@H]1C(=O)N[C@@H](CO)C(=O)O [Compound No. 26] (H-Y[Aib]EGTFTSDYSILLEK([εLys-εLys-γGlu-C18 diacid])QAAHEFINWLLAGGPSSGAPPPS-OH)	0.49* kg/L	–

Reference: patent US20230272029A1, “CO-AGONISTS AT GLP-1 AND GIP RECEPTORS SUITABLE FOR ORAL DELIVERY” (Novo Nordisk A/S, priority 2020, published 2023)
